Results: patent publication US20210255193A1, “LYSINE REACTIVE PROBES AND USES THEREOF” (The Scripps Research Institute, priority 2017, published 2021)

Experiments:
Test in all cases: competitive isoTOP-ABPP
Format in all cases: binding
[1] = target: T1, POLR2L DNA-directed RNA polymerases I, II, and III subunit (Homo sapiens, UniProt P62875); conditions: for isoTOP-ABPP reactivity ratio at lysine P62875_K67 / isoTOP-ABPP ratio (R) at liganded lysine P62875_K67: 50 uM, in vitro; for isoTOP-ABPP reactivity ratio at lysine P62875_K67: 231 sol; for isoTOP-ABPP ratio (R) at liganded lysine P62875_K67: sol, 231
T1 construct: isoTOP-ABPP experiments performed in cell lysates (in vitro); endogenous in cells; host or cells: soluble proteome of human cancer cell lines (MDA-MB-231, Ramos, Jurkat)
Method in brief: (§1)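 Lysine engagement is reported as R, the MS1 peak-area ratio of heavy-tagged DMSO to light-tagged compound samples. Final fragment concentrations were 50 μM for activated esters and 100 μM for guanidinylating agents; STP-alkyne probe 0.1 mM, 1 h.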

[2] = target: T2, MTOR Serine/threonine-protein kinase mTOR (Homo sapiens, UniProt P42345); conditions: for isoTOP-ABPP reactivity ratio at lysine P42345_K2066 / isoTOP-ABPP ratio (R) at liganded lysine P42345_K2066: 50 uM, in vitro; for isoTOP-ABPP reactivity ratio at lysine P42345_K2066: 231 sol; for isoTOP-ABPP ratio (R) at liganded lysine P42345_K2066: sol, 231
T2 construct: isoTOP-ABPP experiments performed in cell lysates (in vitro); endogenous in cells; host or cells: soluble proteome of human cancer cell lines (MDA-MB-231; Ramos and Jurkat also prepared)
Method in brief: as §1

[3] = target: T3, GLUD1 Glutamate dehydrogenase 1, mitochondrial (Homo sapiens, UniProt P00367); conditions: for isoTOP-ABPP reactivity ratio at lysine P00367_K480 / isoTOP-ABPP ratio (R) at liganded lysine P00367_K480: 50 uM, in vitro; for isoTOP-ABPP reactivity ratio at lysine P00367_K480: 231 sol; for isoTOP-ABPP ratio (R) at liganded lysine P00367_K480: sol, 231; for isoTOP-ABPP ratio, lysine P00367_K480: possible other lysine P00367_K477
T3 construct: isoTOP-ABPP experiments performed in cell lysates (in vitro); endogenous in cells; host or cells: MDA-MB-231 soluble lysate
Method in brief: as §1

[4] = target: T4, KIAA1967 DBIRD complex subunit KIAA1967 (Homo sapiens, UniProt Q8N163); conditions: for isoTOP-ABPP reactivity ratio at lysine Q8N163_K97 / isoTOP-ABPP reactivity ratio at lysine Q8N163_K112 / isoTOP-ABPP ratio (R) at liganded lysine Q8N163_K97 / isoTOP-ABPP ratio (R) at liganded lysine Q8N163_K112: 50 uM, in vitro; for isoTOP-ABPP reactivity ratio at lysine Q8N163_K97 / isoTOP-ABPP reactivity ratio at lysine Q8N163_K112: 231 sol; for isoTOP-ABPP ratio (R) at liganded lysine Q8N163_K97 / isoTOP-ABPP ratio (R) at liganded lysine Q8N163_K112: sol, 231
T4 construct: isoTOP-ABPP experiments performed in cell lysates (in vitro); endogenous in cells; host or cells: soluble proteome of human cancer cell lines (MDA-MB-231; Ramos and Jurkat also prepared)
Method in brief: as §1

[5] = target: T5, PFKM 6-phosphofructokinase, muscle type (Homo sapiens, UniProt P08237); conditions: for isoTOP-ABPP reactivity ratio at lysine P08237_K678 / isoTOP-ABPP ratio (R) at liganded lysine P08237_K678: 50 uM, in vitro; for isoTOP-ABPP reactivity ratio at lysine P08237_K678: 231 sol; for isoTOP-ABPP ratio (R) at liganded lysine P08237_K678: sol, 231
T5 construct: isoTOP-ABPP experiments performed in cell lysates (in vitro); endogenous in cells; host or cells: MDA-MB-231 soluble lysate
T5 sequence (P08237 1-780): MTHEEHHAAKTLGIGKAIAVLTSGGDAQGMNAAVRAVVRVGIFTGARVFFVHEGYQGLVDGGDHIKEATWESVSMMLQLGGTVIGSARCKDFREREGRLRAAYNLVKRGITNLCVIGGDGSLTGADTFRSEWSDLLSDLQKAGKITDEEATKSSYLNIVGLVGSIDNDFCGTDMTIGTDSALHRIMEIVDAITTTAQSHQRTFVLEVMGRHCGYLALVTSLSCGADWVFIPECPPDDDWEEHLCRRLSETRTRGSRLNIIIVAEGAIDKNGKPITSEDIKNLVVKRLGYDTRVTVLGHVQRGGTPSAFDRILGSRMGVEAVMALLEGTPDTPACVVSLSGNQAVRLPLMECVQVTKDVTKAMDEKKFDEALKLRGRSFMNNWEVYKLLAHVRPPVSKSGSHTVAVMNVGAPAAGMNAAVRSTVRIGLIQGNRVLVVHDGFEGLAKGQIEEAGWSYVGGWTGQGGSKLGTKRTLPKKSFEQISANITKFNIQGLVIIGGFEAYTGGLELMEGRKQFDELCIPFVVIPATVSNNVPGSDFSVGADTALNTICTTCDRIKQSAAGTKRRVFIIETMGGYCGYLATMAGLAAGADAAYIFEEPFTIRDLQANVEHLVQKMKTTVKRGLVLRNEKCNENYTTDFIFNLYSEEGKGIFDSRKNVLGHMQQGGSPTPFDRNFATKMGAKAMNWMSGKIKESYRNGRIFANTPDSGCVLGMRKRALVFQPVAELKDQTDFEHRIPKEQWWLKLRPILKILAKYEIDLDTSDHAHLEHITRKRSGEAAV
Method in brief: as §1

T3 sequence (P00367 54-558): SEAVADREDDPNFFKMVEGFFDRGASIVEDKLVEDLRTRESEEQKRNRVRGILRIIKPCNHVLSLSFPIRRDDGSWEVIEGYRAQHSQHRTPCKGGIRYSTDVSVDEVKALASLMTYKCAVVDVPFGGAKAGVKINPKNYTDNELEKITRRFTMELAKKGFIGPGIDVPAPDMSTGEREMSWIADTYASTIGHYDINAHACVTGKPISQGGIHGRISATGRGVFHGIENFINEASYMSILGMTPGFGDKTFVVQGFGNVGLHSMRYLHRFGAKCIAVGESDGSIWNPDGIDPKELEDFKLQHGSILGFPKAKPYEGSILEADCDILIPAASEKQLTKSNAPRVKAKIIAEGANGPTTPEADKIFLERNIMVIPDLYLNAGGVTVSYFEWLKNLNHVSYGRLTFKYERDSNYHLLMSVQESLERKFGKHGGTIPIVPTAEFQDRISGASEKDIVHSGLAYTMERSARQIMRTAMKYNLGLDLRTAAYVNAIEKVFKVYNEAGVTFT
T4 sequence (Q8N163 whole entry, one chain of several): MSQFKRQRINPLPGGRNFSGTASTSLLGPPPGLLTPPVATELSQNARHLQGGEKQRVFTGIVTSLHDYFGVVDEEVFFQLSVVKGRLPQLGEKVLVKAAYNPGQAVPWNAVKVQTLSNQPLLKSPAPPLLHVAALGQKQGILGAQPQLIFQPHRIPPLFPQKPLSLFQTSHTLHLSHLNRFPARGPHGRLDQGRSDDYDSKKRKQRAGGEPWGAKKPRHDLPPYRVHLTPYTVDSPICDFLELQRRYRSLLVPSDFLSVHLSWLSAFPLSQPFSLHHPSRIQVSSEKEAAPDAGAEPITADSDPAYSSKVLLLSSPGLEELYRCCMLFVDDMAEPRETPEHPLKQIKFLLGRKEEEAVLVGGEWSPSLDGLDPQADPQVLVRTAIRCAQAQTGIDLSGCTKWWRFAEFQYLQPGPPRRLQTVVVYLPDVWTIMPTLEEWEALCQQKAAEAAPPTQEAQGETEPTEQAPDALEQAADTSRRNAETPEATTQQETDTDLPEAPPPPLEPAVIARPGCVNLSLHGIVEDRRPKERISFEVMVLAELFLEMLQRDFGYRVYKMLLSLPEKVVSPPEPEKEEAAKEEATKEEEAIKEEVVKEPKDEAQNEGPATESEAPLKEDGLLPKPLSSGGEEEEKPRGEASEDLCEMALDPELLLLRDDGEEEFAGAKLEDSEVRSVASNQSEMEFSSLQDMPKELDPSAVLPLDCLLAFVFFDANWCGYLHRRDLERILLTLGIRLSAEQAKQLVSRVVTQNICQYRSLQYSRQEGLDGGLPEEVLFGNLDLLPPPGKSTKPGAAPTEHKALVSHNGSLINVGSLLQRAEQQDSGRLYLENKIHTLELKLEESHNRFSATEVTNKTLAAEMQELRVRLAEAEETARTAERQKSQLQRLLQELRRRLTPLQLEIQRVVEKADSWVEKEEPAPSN

Compound | isoTOP-ABPP ratio (R) at liganded lysine P62875_K67 [1] | isoTOP-ABPP ratio (R) at liganded lysine P42345_K2066 [2] | isoTOP-ABPP ratio (R) at liganded lysine P00367_K480 [3] | isoTOP-ABPP ratio (R) at liganded lysine Q8N163_K97 [4] | isoTOP-ABPP ratio (R) at liganded lysine P08237_K678 [5] | isoTOP-ABPP ratio, lysine P62875_K67 ([1]; 50 uM_231_sol_in vitro) | isoTOP-ABPP ratio, lysine P42345_K2066 ([2]; 50 uM_231_sol_in vitro) | isoTOP-ABPP ratio, lysine P00367_K480 ([3]; 50 uM_231_sol_in vitro) | isoTOP-ABPP ratio, lysine Q8N163_K97 ([4]; 50 uM_231_sol_in vitro) | isoTOP-ABPP ratio, lysine Q8N163_K112 ([4]; 50 uM_231_sol_in vitro) | isoTOP-ABPP ratio, lysine P08237_K678 ([5]; 50 uM_231_sol_in vitro) | further results
O=C(CN1C(=O)c2ccccc2C1=O)Oc1c(F)c(F)c(F)c(F)c1F [fragment 27, Pentafluorophenyl 2-(1,3-dioxoisoindolin-2-yl)acetate] | – | – | – | – | – | – | – | – | – | – | – | isoTOP-ABPP reactivity ratio at lysine P62875_K67 [1]: 1.0; isoTOP-ABPP reactivity ratio at lysine P42345_K2066 [2]: 2.5; isoTOP-ABPP reactivity ratio at lysine P00367_K480 [3]: 2.0; isoTOP-ABPP reactivity ratio at lysine Q8N163_K97 [4]: 0.9; isoTOP-ABPP reactivity ratio at lysine Q8N163_K112 [4]: 1.2; isoTOP-ABPP reactivity ratio at lysine P08237_K678 [5]: 2.6
CCn1cc(C(=O)Oc2c(F)c(F)c(F)c(F)c2F)c(=O)c2ccc(C)nc21 [fragment 28, Pentafluorophenyl 1-ethyl-7-methyl-4-oxo-1,4-dihydro-1,8-naphthyridine-3-carboxylate] | – | – | – | – | – | – | – | – | – | – | – | isoTOP-ABPP reactivity ratio at lysine P62875_K67 [1]: 1.0; isoTOP-ABPP reactivity ratio at lysine P42345_K2066 [2]: 1.0; isoTOP-ABPP reactivity ratio at lysine P00367_K480 [3]: 1.0; isoTOP-ABPP reactivity ratio at lysine Q8N163_K97 [4]: 0.9; isoTOP-ABPP reactivity ratio at lysine Q8N163_K112 [4]: 1.1; isoTOP-ABPP reactivity ratio at lysine P08237_K678 [5]: 1.3
O=C(Oc1ccc([N+](=O)[O-])cc1[N+](=O)[O-])C(c1ccccc1)c1ccccc1 [fragment 30, 2,4-Dinitrophenyl 2,2-diphenylacetate] | – | – | – | – | – | – | – | – | – | – | – | isoTOP-ABPP reactivity ratio at lysine P62875_K67 [1]: 1.8; isoTOP-ABPP reactivity ratio at lysine P42345_K2066 [2]: 3.5; isoTOP-ABPP reactivity ratio at lysine P00367_K480 [3]: 1.8; isoTOP-ABPP reactivity ratio at lysine Q8N163_K97 [4]: 1.0; isoTOP-ABPP reactivity ratio at lysine Q8N163_K112 [4]: 1.4; isoTOP-ABPP reactivity ratio at lysine P08237_K678 [5]: 20.0
O=C(Oc1ccc([N+](=O)[O-])cc1[N+](=O)[O-])c1cc(C(F)(F)F)cc(C(F)(F)F)c1 [fragment 31, 2,4-Dinitrophenyl 3,5-bis(trifluoromethyl)benzoate] | – | – | – | – | – | – | – | – | – | – | – | isoTOP-ABPP reactivity ratio at lysine P62875_K67 [1]: 0.9; isoTOP-ABPP reactivity ratio at lysine P42345_K2066 [2]: 1.1; isoTOP-ABPP reactivity ratio at lysine P00367_K480 [3]: 1.3; isoTOP-ABPP reactivity ratio at lysine Q8N163_K97 [4]: 0.9; isoTOP-ABPP reactivity ratio at lysine Q8N163_K112 [4]: 1.0; isoTOP-ABPP reactivity ratio at lysine P08237_K678 [5]: 1.1
O=C(Oc1ccc([N+](=O)[O-])cc1[N+](=O)[O-])C1CCN(C(=O)OCc2ccccc2)CC1 [fragment 34, 1-Benzyl 4-(2,4-dinitrophenyl) piperidine-1,4-dicarboxylate] | 1.0 | 1.1 | 1.3 | 1.3 | 1.1 | – | – | – | – | – | – | isoTOP-ABPP ratio (R) at liganded lysine Q8N163_K112 [4]: 1.0
O=C(Oc1ccc([N+](=O)[O-])cc1[N+](=O)[O-])c1ccc2ccccc2n1 [fragment 35, 2,4-Dinitrophenyl quinoline-2-carboxylate] | 0.9 | 1.1 | 1.8 | 0.8 | 1.2 | – | – | – | – | – | – | –
O=C(CCc1coc2cc(F)ccc2c1=O)Oc1ccc([N+](=O)[O-])cc1[N+](=O)[O-] [fragment 36, 2,4-Dinitrophenyl 3-(7-fluoro-4-oxo-4H-chromen-3-yl)propanoate] | 4.1 | 3.0 | 3.2 | 0.9 | 5.3 | – | – | – | – | – | – | isoTOP-ABPP ratio (R) at liganded lysine Q8N163_K112 [4]: 1.1
O=C(Oc1ccc([N+](=O)[O-])cc1[N+](=O)[O-])c1ccc(-c2ccccc2)cc1 [fragment 37, 2,4-Dinitrophenyl [1,1′-biphenyl]-4-carboxylate] | 0.9 | 1.0 | 1.1 | 1.0 | 1.0 | – | – | – | – | – | – | isoTOP-ABPP ratio (R) at liganded lysine Q8N163_K112 [4]: 1.1
O=C(Oc1ccc([N+](=O)[O-])cc1[N+](=O)[O-])c1ccccc1Nc1cccc(C(F)(F)F)c1 [fragment 40, 2,4-Dinitrophenyl 2-((3-(trifluoromethyl)phenyl)amino)benzoate] | 1.0 | 0.8 | 1.2 | 1.0 | 0.9 | – | – | – | – | – | – | isoTOP-ABPP ratio (R) at liganded lysine Q8N163_K112 [4]: 1.5
N#Cc1ccc(C(=O)Oc2ccc([N+](=O)[O-])cc2[N+](=O)[O-])cc1 [fragment 44, 2,4-Dinitrophenyl 4-cyanobenzoate] | – | – | – | – | – | 1.0 | 1.7 | 1.2 | 0.8 | 1.0 | 1.9 | –
O=C(CCc1ccc2c(c1)OCO2)Oc1ccc([N+](=O)[O-])cc1[N+](=O)[O-] [fragment 45, 2,4-Dinitrophenyl 3-(benzo[d][1,3]dioxol-5-yl)propanoate] | – | – | – | – | – | 2.8 | 1.1 | 2.8 | 0.8 | 1.2 | 4.8 | –
O=C(ON1C(=O)CCC1=O)c1cc(C(F)(F)F)cc(C(F)(F)F)c1 [fragment 46, 3,5-Bis(trifluoromethyl)benzoic acid NHS ester] | – | – | – | – | – | 1.0 | 1.5 | 1.5 | 0.9 | 1.1 | 1.3 | –
O=C(Oc1c(F)c(F)c(C(F)(F)F)c(F)c1F)c1cc(C(F)(F)F)cc(C(F)(F)F)c1 [fragment 47, 2,3,5,6-Tetrafluoro-4-(trifluoromethyl)phenyl 3,5-bis(trifluoromethyl)benzoate] | – | – | – | – | – | 1.0 | 1.1 | 2.0 | 0.9 | 1.5 | 0.8 | –
O=C(Oc1c(F)c(F)cc(F)c1F)c1cc(C(F)(F)F)cc(C(F)(F)F)c1 [fragment 48, 2,3,5,6-Tetrafluorophenyl 3,5-bis(trifluoromethyl)benzoate] | – | – | – | – | – | 0.9 | 1.0 | 1.5 | 0.6 | 1.0 | 0.9 | –
CC(C)(C)OC(=O)N=C(NC(=O)OC(C)(C)C)n1cccn1 [fragment 50, reference compound] | – | – | – | – | – | – | – | – | – | – | – | isoTOP-ABPP ratio, lysine P62875_K67 ([1]; 100 uM_231_sol_in vitro): 1.0; isoTOP-ABPP ratio, lysine P42345_K2066 ([2]; 100 uM_231_sol_in vitro): 1.4; isoTOP-ABPP ratio, lysine P00367_K480 ([3]; 100 uM_231_sol_in vitro): 1.3; isoTOP-ABPP ratio, lysine Q8N163_K97 ([4]; 100 uM_231_sol_in vitro): 3.9; isoTOP-ABPP ratio, lysine Q8N163_K112 ([4]; 100 uM_231_sol_in vitro): 4.7; isoTOP-ABPP ratio, lysine P08237_K678 ([5]; 100 uM_231_sol_in vitro): 20.0
NC(=O)c1cc(C(F)(F)F)cc(C(F)(F)F)c1 [fragment 51, reference compound] | – | – | – | – | – | 1.0 | 0.8 | 1.5 | 0.8 | 0.8 | 0.8 | –
